In patent US20140315834A1 (Medicon Pharmaceuticals, Inc., priority 2012, published 2014):
Where two headings read alike, the source gives them in different places.

What was measured:
CYP 2D6 = CYP 2D6 (Homo sapiens, UniProt P10635); settings: 37° C., NADPH-regenerating solution
Method: (§1) PSA 95 was pre-incubated at 37° C. for 5 minutes with an NADPH-regenerating solution in 0.1 M potassium phosphate buffer (pH 7.4). The reaction was initiated by the addition of individual recombinant human CYP isoforms (25 μmol/ml) in a total volume of 1 ml and samples were maintained at 37° C. for various time periods. At each designated time-point, aliquots were extracted with acetonitrile, and subjected to HPLC analysis.

CYP 2C19 = CYP 2C19 (Homo sapiens, UniProt P33261); settings: 37° C., NADPH-regenerating solution
Method: as §1

CYP 2C9 = CYP 2C9 (Homo sapiens, UniProt P11712); settings: 37° C., NADPH-regenerating solution
Method: as §1

CYP 3A4 = CYP 3A4 (Homo sapiens, UniProt P08684); settings: 37° C., NADPH-regenerating solution
Method: as §1

[1] = system: MDA-MB-231 human BC cells; test: Orthotopic MDA-MB-231 breast cancer xenografts, prevention; format: in vivo, mice
CYP 1A2 = CYP 1A2 (Homo sapiens, UniProt P05177); settings: 37° C., NADPH-regenerating solution
Method: as §1

[2] = Pharmacokinetics of PI-PEG and PI, i.p.; format: in vivo, mice; settings: equimolar doses
Method: PI-PEG 7 and PI 1 were injected i.p. in mice at equimolar doses and at predetermined time points the animals were sacrificed and blood was collected through heart puncture. PI-PEG and PI were extracted by adding a 2-fold volume of acetonitrile. After centrifugation for 10 minutes at 5000×g, the supernatants were subjected to HPLC analysis.

[3] = system: U87 glioblastoma cell line; test: 24-hour growth inhibition of glioblastoma cells; format: cell-based; settings: read-out: 24-h 1c50
A431 skin cancer cells = test: Cellular uptake, intracellular level by HPLC; settings: 1 hour incubation
Method: A431 skin cancer cells were seeded into 6-well culture plates (5×10^5 per well). After overnight incubation, the cells were incubated with 100 pM of each compound alone for 1 hour. After the media were removed and the monolayers were washed three times with PBS (1% BSA), the cells were collected in PBS.

MIA PaCa-2 cells = test: MIA PaCa-2 pancreatic cancer xenografts; format: in vivo, mice; settings: for reduction of tumor volume growth: day 25
Method: The in vivo chemotherapeutic potential of P-FTS 67 was assessed using a pancreatic cancer xenograft model. MIA PaCa-2 cells were injected subcutaneously into the flank areas of nude mice. When palpable tumors were observed, the mice received P-FTS 67, 50 or 100 mg/kg/d by oral gavage in corn oil or just corn oil (control) for 25 days. On day 25 of treatment, P-FTS 67, 50 mg/kg/d, and P-FTS 67, 100 mg/kg/d reduced the tumor volume growth by 62% and 65%, respectively (p <0.05; FIG. 27).

p-ERK1/2 = test: Immunostaining of xenograft tissue sections, p-ERK1/2; format: in vivo, mice; settings: MIA PaCa-2 xenograft tissue sections
[4] = system: AsPC-1, CFPAC-1, Capan-2, Panc-1 and MIA PaCa-2; test: Growth of human pancreatic cancer cell lines, 24 hours; format: cell-based; settings: escalating concentrations, all cell lines
Method: Cell growth was determined in the human pancreatic cancer cell lines AsPC-1, CFPAC-1, Capan-2, Panc-1 and MIA PaCa-2 after treatment with escalating concentrations of P-FTS 67 for 24 hours.

[5] = system: Ras (Ras-GTP) in Panc-1 cells; test: Ras-GTP pull down assay in cells; format: cell-based
Excerpt: In the following experiments it was examined whether the pancreatic cancer growth inhibitory effect of P-FTS 67 is associated with down regulation of Ras signaling. For this purpose, the Ras-GTP pull down assay was used.

p-c-RAF = test: Immunostaining of xenograft tissue sections, p-c-RAF; format: in vivo, mice; settings: MIA PaCa-2 xenograft tissue sections
[6] = Sub-chronic toxicity of P-FTS, 3 weeks oral gavage; format: in vivo, mice
Method: The toxicity of P-FTS in mice was further examined. Groups of 6 week-old female BALB/c mice (5 mice/group) were given by oral gavage once a day for 3 weeks P-FTS: 0, 75, 150, 250 and 350 mg/kg. […] The (sub-chronic) maximum tolerated dose of P-FTS 67 (3-week period of observation) was determined to be at least 350 mg/kg/d.

[7] = system: active Ras in MIA PaCa-2 xenografts; test: Ras-GTP pull down assay in xenograft lysates; format: in vivo, mice
Method: The inhibition of Ras by P-FTS 67 was further confirmed in vivo. The Ras-GTP pull down assay was used to test the capacity of P-FTS 67 to inhibit active Ras in fresh protein lysates from MIA PaCa-2 xenografts. Compared to controls, P-FTS 67, 50 and 100 mg/kg reduced RAS activation in xenografts by 62% and 70%, respectively (p<0.01, for both; FIG. 30A).

[8] = Cardiotoxicity, histology of heart tissue sections; format: in vivo, mice; settings: treated for about 1.5 months
Excerpt: Heart tissue sections from mice treated with PTI for about 1.5 months were examined histologically.

[9] = Pharmacokinetics of PTI, plasma levels after i.p. dose
SW480 colon cancer cells = test: SW480 xenografts, prevention of colon cancer; format: in vivo, mice; settings: 10 mg/kg/day oral gavage, 43 days, end of study
Method: Six-week-old female athymic nude mice, i.e. lacking a thymus gland and having no T-cells (Taconic Farms, Germantown, N.Y.; in =6/group) were treated by oral gavage of PTI 10 mg/kg/day, or vehicle (corn oil) for a total of 43 days. Five days later, 1.2×10^6 SW480 colon cancer cells suspended in 100 μl of phosphate buffered saline (PBS) were inoculated subcutaneously to each flank of the mice. Tumor size was monitored by measuring the length (L) and width (W) with a digital caliper and the volume was calculated according to the formula, L×W×(L+W/2)×0.56.

[10] = system: Salmonella Typhimurium (TA98 and TA100); test: Genotoxicity, reverse mutation with and without rat liver S9; settings: TA98 and TA100, presence and absence of rat liver S9
[11] = Gastrointestinal toxicity, gastric ulcers by H&E staining
in vivo = settings: wt (wild type) and nude, mouse, po
[12] = Maximum tolerated dose of PA-III; design: species or system mice; settings: mouse, in vivo
Method: The ability of phospho-aspirin III (PA-III) 506 to prevent breast cancer (BC) was evaluated using MDA-MB-231 human BC cells xenografted into one of the mammary glands of nude mice (orthotopic xenografts). PA was administered orally, 120 mg/kg/d 1 week prior to inoculating the cells (the standard prevention protocol); acetylsalicylic acid (ASA) was given at an equimolar dose of 40 mg/kg/d. This was the highest dose of ASA that these mice could tolerate on a long-term basis. The dose of PA-III 506 represents <10% of its maximum tolerated dose (MTD>1,600 mg/kg), but was chosen so that a comparison between PA-III 506 and ASA was possible.

[13] = Levels of PA-III and metabolites in blood and xenografts by HPLC; format: in vivo; settings: mice treated with PA-III 506
[14] = mouse, in vivo, po, 100 mg/kg
[15] = design: AUC in lung: unit not given beside the values; settings: mouse, in vivo, inhaled or intranasal
[16] = system: A549 human lung cancer xenografts; test: A549 sc xenografts, i.v. PS in nanocarrier vs sulindac; format: in vivo, mice; settings: equimolar dose of sulindac 40 mg/kg
[17] = Pharmacokinetics of phosphosulindac amide, single oral dose; settings: after single oral dose 100 mg/kg PSA 95
[18] = rat, in vivo
[19] = 120 mg/kg/d orally, 20 treated mice

CYP 2D6, sequence (P10635 whole entry): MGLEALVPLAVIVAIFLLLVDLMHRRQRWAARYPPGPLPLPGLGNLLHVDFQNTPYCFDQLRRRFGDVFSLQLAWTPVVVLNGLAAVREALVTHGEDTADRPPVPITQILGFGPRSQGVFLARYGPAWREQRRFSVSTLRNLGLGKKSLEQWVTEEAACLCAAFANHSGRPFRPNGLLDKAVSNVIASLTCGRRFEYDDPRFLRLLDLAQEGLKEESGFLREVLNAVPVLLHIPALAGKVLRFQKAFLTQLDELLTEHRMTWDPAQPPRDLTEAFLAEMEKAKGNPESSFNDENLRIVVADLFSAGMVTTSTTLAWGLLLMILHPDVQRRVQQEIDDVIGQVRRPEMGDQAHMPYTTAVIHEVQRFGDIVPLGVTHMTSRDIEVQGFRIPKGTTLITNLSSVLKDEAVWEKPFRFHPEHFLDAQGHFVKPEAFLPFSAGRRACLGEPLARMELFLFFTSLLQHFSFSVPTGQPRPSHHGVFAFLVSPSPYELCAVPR
CYP 2C19, sequence (P33261 whole entry): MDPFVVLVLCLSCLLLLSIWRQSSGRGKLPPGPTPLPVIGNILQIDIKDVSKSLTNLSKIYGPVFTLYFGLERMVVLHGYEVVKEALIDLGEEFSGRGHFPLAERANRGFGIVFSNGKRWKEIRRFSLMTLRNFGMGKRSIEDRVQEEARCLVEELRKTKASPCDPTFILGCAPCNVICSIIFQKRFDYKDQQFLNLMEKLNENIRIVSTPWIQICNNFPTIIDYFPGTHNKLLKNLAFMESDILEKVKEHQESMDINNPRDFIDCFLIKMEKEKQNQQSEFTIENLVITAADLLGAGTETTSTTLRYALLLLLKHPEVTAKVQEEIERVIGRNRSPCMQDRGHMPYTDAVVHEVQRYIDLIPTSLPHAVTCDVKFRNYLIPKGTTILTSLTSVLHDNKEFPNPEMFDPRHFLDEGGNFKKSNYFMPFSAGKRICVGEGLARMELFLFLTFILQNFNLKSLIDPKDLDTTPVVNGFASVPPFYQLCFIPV
CYP 2C9, sequence (P11712 whole entry): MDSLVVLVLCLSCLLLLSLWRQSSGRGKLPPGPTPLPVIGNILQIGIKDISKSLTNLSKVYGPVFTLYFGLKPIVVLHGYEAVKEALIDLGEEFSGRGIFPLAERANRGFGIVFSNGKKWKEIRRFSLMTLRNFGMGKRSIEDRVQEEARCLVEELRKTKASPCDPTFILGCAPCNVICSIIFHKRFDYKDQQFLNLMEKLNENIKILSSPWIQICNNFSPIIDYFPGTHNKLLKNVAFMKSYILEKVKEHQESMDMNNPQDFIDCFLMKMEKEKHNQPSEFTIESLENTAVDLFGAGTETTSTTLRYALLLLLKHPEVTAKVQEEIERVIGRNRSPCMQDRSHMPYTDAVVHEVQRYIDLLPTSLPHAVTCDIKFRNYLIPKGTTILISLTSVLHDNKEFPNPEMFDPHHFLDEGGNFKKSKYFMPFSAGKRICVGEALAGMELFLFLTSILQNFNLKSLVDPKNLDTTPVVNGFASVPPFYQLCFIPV
CYP 3A4, sequence (P08684 whole entry): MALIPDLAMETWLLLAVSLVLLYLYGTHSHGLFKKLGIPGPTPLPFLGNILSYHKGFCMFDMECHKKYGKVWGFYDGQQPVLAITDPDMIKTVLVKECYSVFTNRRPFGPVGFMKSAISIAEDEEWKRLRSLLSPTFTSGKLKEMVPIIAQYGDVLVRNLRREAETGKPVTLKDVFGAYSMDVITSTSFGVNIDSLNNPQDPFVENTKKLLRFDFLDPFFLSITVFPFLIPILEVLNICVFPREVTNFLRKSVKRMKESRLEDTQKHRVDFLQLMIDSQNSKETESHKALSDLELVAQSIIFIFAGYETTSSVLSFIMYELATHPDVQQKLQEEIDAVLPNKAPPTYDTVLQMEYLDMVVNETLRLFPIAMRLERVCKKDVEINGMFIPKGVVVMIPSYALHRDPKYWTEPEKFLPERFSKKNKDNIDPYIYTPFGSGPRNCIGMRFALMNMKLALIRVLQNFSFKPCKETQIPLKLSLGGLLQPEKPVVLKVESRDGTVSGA
CYP 1A2, sequence (P05177 whole entry): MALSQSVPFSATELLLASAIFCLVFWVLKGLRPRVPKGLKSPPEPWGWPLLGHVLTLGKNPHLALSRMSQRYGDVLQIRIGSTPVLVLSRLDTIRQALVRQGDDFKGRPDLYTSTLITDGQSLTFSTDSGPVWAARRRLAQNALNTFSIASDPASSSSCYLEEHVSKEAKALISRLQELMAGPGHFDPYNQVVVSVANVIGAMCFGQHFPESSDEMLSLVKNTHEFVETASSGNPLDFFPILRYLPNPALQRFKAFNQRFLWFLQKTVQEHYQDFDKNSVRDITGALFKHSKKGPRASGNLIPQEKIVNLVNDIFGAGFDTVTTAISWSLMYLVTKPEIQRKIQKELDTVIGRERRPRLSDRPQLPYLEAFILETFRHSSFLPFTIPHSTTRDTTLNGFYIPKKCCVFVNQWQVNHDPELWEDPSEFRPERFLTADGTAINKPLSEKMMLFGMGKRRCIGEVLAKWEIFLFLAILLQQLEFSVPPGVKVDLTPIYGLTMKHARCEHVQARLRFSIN

With CC(=O)Oc1ccccc1C(=O)O [ASA, acetylsalicylic acid] the “oxidation (conversion to 5-OH-PSA) by CYP 2D6” value (CYP 2D6) was “cannot be oxidized”, the “oxidation (conversion to 5-OH-PSA) by CYP 2C19” value (CYP 2C19) was “cannot be oxidized” and the “oxidation by CYP 2C9” value (CYP 2C9) was “cannot be oxidized”. The “oxidation by CYP 3A4” value (CYP 3A4) was “cannot be oxidized”, the “effect on BC xenograft growth” value ([1]; 40 mg/kg/d) was “no effect” and the “oxidation by CYP 1A2” value (CYP 1A2) was “cannot be oxidized”.

In the case of CCOP(=O)(OCC)OCCCCOC(=O)C(C)c1ccc(CC(C)C)cc1 (stereo not drawn) [Compound 2, phospho-ibuprofen], the “stability and circulation in blood” value [2] is reported as “rapidly hydrolyzed”, the IC50 ([3]; 24 h) is reported as 98 µM and the “level inside the cells” value (A431 skin cancer cells; 100 pM) is reported as 0.75 nM. For the same compound, the “increase over the other two compounds” value (A431 skin cancer cells; limit of detection 2.5 pmol) was ≥ 300 fold.

For CCOP(=O)(OCC)OCCCCOC(=O)c1ccccc1SC/C=C(\C)CC/C=C(\C)CCC=C(C)C [Compound 67], the “reduction of tumor volume growth” value (MIA PaCa-2 cells; 50 mg/kg/d oral gavage) was 62%, the “reduction of tumor volume growth” value (MIA PaCa-2 cells; 100 mg/kg/d oral gavage) was 65% and the “tolerability in the efficacy study” value (MIA PaCa-2 cells; 50 or 100 mg/kg/d oral gavage, 25 days) was “well tolerated”. For the same compound, the “reduction of expression of p-ERK1/2” value (p-ERK1/2) was 71%, the “pancreatic cancer cell growth, % control” value [4] was “decreases pancreatic cancer cell growth in a concentration-dependent manner” and the “inhibition of active Ras (Ras-GTP)” value [5] was “significantly inhibited”. For the same compound, the “reduction of expression of p-c-RAF” value (p-c-RAF) was 73%, the “weight loss or other signs of toxicity” value ([6]; 75, 150, 250 and 350 mg/kg oral gavage once a day for 3 weeks) was “no weight loss or other signs of toxicity” and the “(sub-chronic) maximum tolerated dose” value ([6]; oral gavage once a day, 3-week period of observation) was “at least 350 mg/kg/d”. For the same compound, the “reduction of RAS activation in xenografts” value ([7]; 50 mg/kg) was 62% and the “reduction of RAS activation in xenografts” value ([7]; 100 mg/kg) was 70%.

With CCOP(=O)(OCC)OCCc1ccc(OC(=O)Cc2c(C)n(C(=O)c3ccc(Cl)cc3)c3ccc(OC)cc23)cc1 [Compound 93] the “heart histology vs healthy control mice” value [8] was “no differences”, the “AUCtotal of PTI relative to indomethacin” value ([9]; FIG. 19, equimolar i.p. doses) was “about 3.5 times” and the “time at which PTI became undetectable post administration” value ([9]; single i.p. dose 100 mg/kg PTI) was 4 h. For the same compound, the “time of maximum concentration of PTI” value ([9]; single i.p. dose 100 mg/kg PTI) was 2 h, the “reduction of tumor growth” value (SW480 colon cancer cells) was 85% and the genotoxicity [10] was “no genotoxicity”. For the same compound, the “gastric damage, H&E stained gastric tissue sections” value ([11]; FIG. 18A) was “not”, the “reduction of ulcers compared to indomethacin” value ([11]; day 5, PTI 10 mg/kg/day) was 60% and the “rats that developed ulcers” value ([11]; day 5, gavage 4 days, indomethacin 4.75 mg/kg/day, PTI 10 mg/kg/day) was 40%.

For CCOP(=O)(OCC)OCC(CNC(=O)CC1=C(C)/C(=C/c2ccc([S+](C)[O-])cc2)c2ccc(F)cc21)OP(=O)(OCC)OCC (stereo not drawn) [Compound 99, (Z)-tetraethyl 3-(2-(5-fluoro-2-methyl-1-(4-(methylsulfinyl)benzylidene)-1H-inden-3-yl)acetamido)propane-1,2-diyl diphosphate], the MTD at 1 week (in vivo) was > 500 mg/kg/day.

For CCOP(=O)(OCC)OCCCCOC(=O)c1ccccc1OC(C)=O [PA-III 506, phospho-aspirin], the “maximum tolerated dose (MTD)” value [12] was > 1,600 mg/kg, the “reduction of average tumor volume compared to controls” value ([1]; 120 mg/kg/d orally) was 62% and the “treated mice that had no tumors” value [1, 19] was 20%. The “treated mice that had tumors <100 mm^3” value [1, 19] was 30% and the “intact compound in plasma or xenografts” value [13] was “No intact PA-III 506 in either plasma or xenografts was detected”.

For CC1=C(CC(=O)O)c2cc(F)ccc2/C1=C\c1ccc(S(C)(=O)=O)cc1 [Sulindac sulfone, sulindac sulfone], the “metabolite generated by PSA 95” value [14] was “no detectable”, the AUC in lung [15] was 57.5 and the Tmax in lung [15] was 8 h. For the same compound, the Tmax in plasma [15] was 8 h.

In the case of CC1=C(CC(=O)O)c2cc(F)ccc2/C1=C\c1ccc([S+](C)[O-])cc1 (stereo not drawn) [Sulindac, sulindac, reference compound], the “inhibition of growth of xenografts” value [16] is reported as 32%, the “metabolite generated by PSA 95” value [17] is reported as “no detectable” and the IC50 ([3]; U87, 24-hour growth inhibition) is reported as ≥ 1000 µM.

For CC(C)Cc1ccc(C(C)C(=O)O)cc1 (stereo not drawn) [ibuprofen, reference compound], the IC50 ([3]; U87, 24-hour growth inhibition) was ≥ 1000 µM and the “accumulation in A431 cells” value (A431 skin cancer cells; limit of detection 2.5 pmol) was “no significant accumulation”.

In the case of COc1ccc2c(c1)c(CC(=O)O)c(C)n2C(=O)c1ccc(Cl)cc1 [indomethacin, reference compound], the Tmax ([9]; mouse, plasma, ip, 58 mg/kg) is reported as 1 h and the “gastric damage, H&E stained gastric tissue sections” value [18] is reported as “caused gastric damage”.

In the case of CC(C)Cc1ccc(C(C)C(=O)OCCCCOP(=O)(O)O)cc1 (stereo not drawn) [phospho-ibuprofen phosphate 505], the “accumulation in A431 cells” value (A431 skin cancer cells; limit of detection 2.5 pmol) is reported as “no significant accumulation”.
